Measured values: patent publication US4469701A, “Pyrrolid-3-en-2-ones and pharmaceutical methods of use thereof” (Stauffer Chemical Company, priority 1983, dated 1984)
Where two headings read alike, the source gives them in different places.

Legend:
mice [1] = experiment: Central anticholinergic: oxotremorine tremors in mice; settings: Mus musculus, ip, 1 h, read-out: ED-100, central anticholinergic
[2] = system: spontaneously hypertensive rats (SHR); experiment: Antihypertensive: blood pressure (tail cuff) in spontaneously hypertensive rats (SHR); type: in vivo, rat; settings: for ED100 / inhibition in vivo at 100 mg/kg: Rattus norvegicus; for ED100: po, read-out: ED-100, antihypertensive; for inhibition in vivo at 100 mg/kg: 6 hr. after a 100 mg/kg oral dose, significance >10, read-out: Antihypertensive: percent decrease in systolic blood pressure in spontaneously hypertensive rats
Procedure: Blood pressure was measured indirectly (tail cuff) in unanesthetized, unheated spontaneously hypertensive rats (SHR) before and 2, 4, and 6 hours after p.o. dosing. Reduction in mean pressure by more than 10% (>10) at any two consecutive measurement times after dosing indicates antihypertensive activity.

mice [3] = experiment: Acute toxicity / autonomic effects observation; settings: mouse, in vivo
Procedure: Mice were dosed at 300 mg/kg, per oral (p.o.) and […], interperitoneal (i.p.) for observation of any acute toxic symptoms or autonomic effects during the subsequent 72 hours. If none were noted, pharmacological evaluation proceeded employing doses and concentrations for each test based on appropriate multiples of doses required by suitable reference compounds. If acute toxicity was observed initially, the minimal toxic dose was determined and pharmacological screening doses were reduced proportionately.

[4] = system: hypercholesterolemic mice; experiment: Hypocholesterolemic: serum cholesterol in hypercholesterolemic mice; type: in vivo, mouse; settings: Mus musculus, hypercholesterolemic mice; for inhibition in vivo at 200 mg/kg: 2 oral doses of 200 mg/kg 20 hr. apart, significance >20, read-out: C = Hypocholesterolemic: percent decrease in serum cholesterol
Procedure: Mice made hypercholesterolemic by being fed a high cholesterol-cholic acid diet for 7 days were dosed on the sixth and seventh days, p.o. After fasting overnight, reduction in serum cholesterol concentration by more than 15% (>15) from hypercholesterolemic control mice indicates activity.
^4 C = Hypocholesterolemic. Percent decrease in serum cholesterol in
hypercholesterolemic mice given 2 oral doses of 200 mg/kg drug candidate

mice [5] = experiment: Antiarrhythmic: chloroform-induced cardiac arrhythmia in mice; type: in vivo, mouse; settings: for A = Antiarrythmic: mouse hearts fibrillating (of 3): 15 min. after a 200 mg/kg intraperitoneal dose, significance <2; for ED100: Mus musculus, ip, read-out: ED-100, antiarrhythmic
Procedure: ^2 A = Antiarrythmic. Less than 2/3 mouse hearts fibrillating 15 min.

rats [6] = experiment: Antiulcer: stress induced gastric ulcers in rats; type: in vivo, rat; settings: for inhibition in vivo at 50 mg/kg / ED100: Rattus norvegicus; for inhibition in vivo at 50 mg/kg: 4 hr. following a 50 mg/kg oral dose in rats, significance >60, read-out: U = Antiulcerative: percent inhibition of stress ulcers; for ED100: po, read-out: ED-100, antiulcer; for Antiulcer effect, in words: rat, in vivo
Procedure: Fasted rats were dosed, p.o., 30 minutes before immobilization in wire mesh and partial immersion in water for 4 hours. Inhibition of the resulting stress induced gastric ulcers by more than 60% (>60) indicates activity.
^6 U = Antiulcerative. Percent inhibition of stress ulcers 4 hr.
following a 50 mg/kg oral dose in rats.

rats [7] = experiment: Bradycardia: heart rate by EKG in rats; type: in vivo, rat; settings: for inhibition in vivo at 5 mg/kg / ED100: Rattus norvegicus; for inhibition in vivo at 5 mg/kg: 0.75 h, 45 min. after a 5 mg/kg oral dose in rats, significance >10, read-out: B = Bradycardiac: percent decrease in heart rate; for ED100: po, rats, reference compounds, read-out: ED-100, bradycardia
Procedure: […] Decrease in heart rate by more than 10% (>10) is considered a bradycardic effect.
Percent decrease in heart rate 45 min. after a 5
mg/kg oral dose in rats.

rats [8] = experiment: Antiedema: carrageenan paw edema in rats; type: in vivo; settings: Rattus norvegicus, po, 3 h, read-out: ED-100, antiedema
Procedure: Rats are dosed p.o. one hour before intraplantar injection of carrigeenan (0.1 ml, 1% susp.). Inhibition of paw edema by more than 30% (>30) 3 hours after carriegeenan injection indicates acute anti-edema activity.

glucose-loaded mice = experiment: Hypoglycemic, glucose-loaded mice; type: in vivo, mouse; settings: glucose loaded mice, 100 mg/kg oral dose; significance >20
Procedure: Reduction in blood glucose concentration by more than 20% (>20) in fasted, glucose-loaded (1 gm/kg) mice one hour after dosing, p.o., indicates activity (test compound administered at same time as glucose load).
^5 H = Hypoglycemic. Percent decrease in serum glucose concentration
in glucose loaded mice hr. following a 100 mg/kg oral dose.

[9] = p.o., rats, reference compounds

CCn1c2c(c3ccccc31)CCSC2(C)CCN(C)C (stereo not shown) [tandamine]
ED100 (mice [1]): > 50 mg/kg

C[C@H](CS)C(=O)N1CCC[C@H]1C(=O)O [captopril, reference compound]
ED100 ([2]; SHR, reference compounds): 100 mg/kg

CC1(C)CCCC(C)(C)N1CC1=CC(=O)N(c2cc(C(F)(F)F)cc(C(F)(F)F)c2)C1 [Compound 3]
Autonomic effect / autonomic inhibition (mice [3]): No evidence of autonomic inhibition | inhibition in vivo at 200 mg/kg [4]: 0% | A = Antiarrythmic: mouse hearts fibrillating (of 3) (mice [5]): 3 | inhibition in vivo at 50 mg/kg (rats [6]): 38% | inhibition in vivo at 100 mg/kg [2]: 32% | Antihypertensive activity, duration ([2]; p.o.): perhaps of long duration | Antihypertensive activity, onset / comparison in words ([2]; p.o.): somewhat slow in onset | Dose with borderline antihypertensive result ([2]; p.o.): 10 mg/kg | inhibition in vivo at 5 mg/kg (rats [7]): 14%

Cc1cccc(C)c1OCC(C)N (stereo not shown) [mexilitine, reference compound]
ED100 (mice [5]; mice, reference compounds): 50 mg/kg

COc1ccc(CCN(C)CCCC(C#N)(c2ccc(OC)c(OC)c2)C(C)C)cc1OC (stereo not shown) [verapamil, reference compound]
ED100 (mice [5]): 50 mg/kg

CC(C(=O)O)c1cccc(C(=O)c2ccccc2)c1 (stereo not shown) [ketoprofen]
ED100 (rats [8]): 5 mg/kg

CC1(C)CCCC(C)(C)N1CC1=CC(=O)N(c2cccc(SC(F)(F)F)c2)C1 [Compound 2, N-[3'-trifluoromethylthiophenyl]-4-[2",2",6",6"tetramethylpiperidino]methylpyrrolid-3-en-2-one]
Acute toxicity / toxic effects (mice [3]): apparent absence | Autonomic effect / autonomic inhibition (mice [3]): apparent absence of autonomic effect | inhibition in vivo at 200 mg/kg [4]: 0% | A = Antiarrythmic: mouse hearts fibrillating (of 3) (mice [5]): 3 | inhibition in vivo at 50 mg/kg (rats [6]): 38% | inhibition in vivo at 100 mg/kg [2]: 14% | inhibition in vivo at 5 mg/kg (rats [7]): 6%

CN(C)CCCN1c2ccccc2Sc2ccc(Cl)cc21 [chlorpromazine, reference compound]
ED100 (mice [1]): 2.5 mg/kg | ED100 (rats [6]): 20 mg/kg

O=C(O)c1cc(-c2ccc(F)cc2F)ccc1O [diflunisal]
ED100 (rats [8]; [9]): 25 mg/kg

COC(=O)C1=C(C)NC(C)=C(C(=O)OC)C1c1ccccc1[N+](=O)[O-] [nifedipine, reference compound]
ED100 (mice [5]; mice, reference compounds): 25 mg/kg | ED100 ([2]; SHR, reference compounds): 50 mg/kg

CCN1CCCC1CNC(=O)c1cc(S(N)(=O)=O)ccc1OC (stereo not shown) [sulpiride]
ED100 (mice [1]): > 100 mg/kg

CC(CCc1ccccc1)NCC(O)c1ccc(O)c(C(N)=O)c1 (stereo not shown) [labetalol, reference compound]
ED100 ([2]; SHR, reference compounds): 50 mg/kg

CC(C)NCC(O)COc1cccc2[nH]ccc12 (stereo not shown) [pindolol, reference compound]
ED100 (mice [5]): 50 mg/kg

CCOC(=O)C(C)(C)Oc1ccc(Cl)cc1 [clofibrate, reference compound]
ED100 ([4]; po, reference compounds, read-out: ED-100, hypocholesterolemic): 400 mg/kg

CSc1ccc2c(c1)N(CCC1CCCCN1C)c1ccccc1S2 (stereo not shown) [thioridazine]
ED100 (mice [1]): 10 mg/kg

NNc1nncc2ccccc12 [hydralazine, reference compound]
ED100 [2]: 2.5 mg/kg

CC1(C)CCCC(C)(C)N1CC1=CC(=O)N(c2cccc(Br)c2)C1 [Compound 14]
inhibition in vivo at 200 mg/kg [4]: 5% | A = Antiarrythmic: mouse hearts fibrillating (of 3) (mice [5]): 3 | inhibition in vivo at 50 mg/kg (rats [6]): 50% | Antiulcer effect, in words (rats [6]): activity appears to be weaker than with Compound 13 | inhibition in vivo at 100 mg/kg [2]: 4% | inhibition in vivo at 5 mg/kg (rats [7]): 0%

CC(C)N(CCC(C(N)=O)(c1ccccc1)c1ccccn1)C(C)C (stereo not shown) [disopyramide, reference compound]
ED100 (mice [5]; mice, reference compounds): 50 mg/kg

NC(=S)Cc1ccccn1 [pyridyl-2-thioacetamide, reference compound]
ED-100, antiulcer (rats [6]; [9]): 50 mg/kg

CCN(CC)CCNC(=O)c1cc(Cl)c(N)cc1OC [metoclopramide]
ED100 (mice [1]): > 100 mg/kg

CC1(C)CCCC(C)(C)N1CC1=CC(=O)N(c2ccccc2)C1 [Compound 6]
H = Hypoglycemic: percent decrease in serum glucose concentration (glucose-loaded mice): 29% | Autonomic effect / autonomic inhibition (mice [3]): little evidence of autonomic effect | inhibition in vivo at 200 mg/kg [4]: 12% | A = Antiarrythmic: mouse hearts fibrillating (of 3) (mice [5]): 3 | inhibition in vivo at 50 mg/kg (rats [6]): 75% | inhibition in vivo at 100 mg/kg [2]: 18% | inhibition in vivo at 5 mg/kg (rats [7]): 20%

N=C(N)NN=Cc1c(Cl)cccc1Cl [quanabenz, reference compound]
ED100 [2]: < 6 mg/kg | ED100 (rats [7]): 2.5 mg/kg

CC1(C)[C@@H](OC(=O)CCC(=O)O)CC[C@]2(C)[C@H]3C(=O)C=C4[C@@H]5C[C@@](C)(C(=O)O)CC[C@]5(C)CC[C@@]4(C)[C@]3(C)CC[C@@H]12 [carbenoxolone, reference compound]
ED100 (rats [6]; rats, reference compounds): > 100 mg/kg

N[C@@H]1C[C@H]1c1ccccc1 (relative stereo) [tranylcypromine]
ED100 (mice [1]): > 25 mg/kg

CCN(CC)CC(=O)Nc1c(C)cccc1C [lidocaine, reference compound]
ED100 (mice [5]): 50 mg/kg

O=C(CCCN1CCC(O)(c2ccc(Cl)cc2)CC1)c1ccc(F)cc1 [haloperidol]
ED100 (mice [1]): 10 mg/kg

Cc1ccc(N(CC2=NCCN2)c2cccc(O)c2)cc1 [phentolamine, reference compound]
ED100 ([2]; SHR, reference compounds): 25 mg/kg

CN(C)CCCN1c2ccccc2CCc2ccccc21 [imipramine]
ED100 (mice [1]): 25 mg/kg

COC(=O)[C@H]1[C@H]2C[C@@H]3c4[nH]c5cc(OC)ccc5c4CCN3C[C@H]2C[C@@H](OC(=O)c2cc(OC)c(OC)c(OC)c2)[C@@H]1OC [reserpine, reference compound]
ED100 ([2]; SHR, reference compounds): 25 mg/kg | ED100 (rats [7]): 5 mg/kg

CS(=O)(=O)c1ccc(-c2cn3ccccc3n2)cc1 [zolimidine, reference compound]
ED100 (rats [6]; rats, reference compounds): > 100 mg/kg

CCN(CC)CCOC(=O)c1ccc(N)cc1 [procaine, reference compound]
ED100 (mice [5]): 100 mg/kg

C[C@](N)(Cc1ccc(O)c(O)c1)C(=O)O [methyldopa, reference compound]
ED100 ([2]; SHR, reference compounds): 50 mg/kg

CNC1=Nc2ccc(Cl)cc2C(c2ccccc2)=[N+]([O-])C1 [chlordiazepoxide, reference compound]
ED100 (rats [6]): 100 mg/kg

CNCCCN1c2ccccc2CCc2ccccc21 [desipramine]
ED100 (mice [1]): > 25 mg/kg

CC1(C)CCCC(C)(C)N1CC1=CC(=O)N(c2ccc(F)cc2)C1 [Compound 5]
Autonomic effect / autonomic inhibition (mice [3]): absence of evidence of autonomic inhibition | inhibition in vivo at 200 mg/kg [4]: 0% | A = Antiarrythmic: mouse hearts fibrillating (of 3) (mice [5]): 0 | Antiarrhythmic effect, in words (mice [5]; mouse, in vivo): noted at antihypertensive doses | inhibition in vivo at 50 mg/kg (rats [6]): 75% | Antiulcer effect, in words (rats [6]): noted at antihypertensive doses | inhibition in vivo at 100 mg/kg [2]: 26% | Dose with borderline antihypertensive result ([2]; p.o.): 5 mg/kg | inhibition in vivo at 5 mg/kg (rats [7]): 24%

C=CC1CN2CCC1CC2C(O)c1ccnc2ccc(OC)cc12 (stereo not shown) [qunidine, reference compound]
ED100 (mice [5]): 100 mg/kg

CC1(C)CCCC(C)(C)N1CC1=CC(=O)N(c2cccc([N+](=O)[O-])c2)C1 [Compound 11]
Autonomic effect / autonomic inhibition (mice [3]): absence | inhibition in vivo at 200 mg/kg [4]: 0% | A = Antiarrythmic: mouse hearts fibrillating (of 3) (mice [5]): 3 | inhibition in vivo at 50 mg/kg (rats [6]): 25% | inhibition in vivo at 100 mg/kg [2]: 27% | Antihypertensive activity, onset / comparison in words ([2]; p.o.): Mild, rather slow onset | inhibition in vivo at 5 mg/kg (rats [7]): 5% | Bradycardic effects, in words (rats [7]; rat, in vivo): absence of bradycardia

COc1ccc([C@@H]2Sc3ccccc3N(CCN(C)C)C(=O)[C@@H]2OC(C)=O)cc1 [diltiazem, reference compound]
ED100 (mice [5]; mice, reference compounds): 50 mg/kg | ED100 (rats [7]): 10 mg/kg

CC(C)NCC(O)COc1cccc2ccccc12 (stereo not shown) [propranolol, reference compound]
ED100 (mice [5]): 40 mg/kg | ED100 (rats [7]): 40 mg/kg

Clc1cccc(Cl)c1N=C1NCCN1 [clonidine, reference compound]
ED100 [2]: < 5 mg/kg | ED100 (rats [7]): 0.5 mg/kg

COc1cc2nc(N3CCN(C(=O)c4ccco4)CC3)nc(N)c2cc1OC [prazosin, reference compound]
ED100 ([2]; SHR, reference compounds): 1 mg/kg
